Laboratory results reported in patent US7829688B2, “Peptides of CaV2.2 that inhibit pain” (The Board of Regents of the University of Texas System, priority 2004, dated 2010).
Ends that are not written are not given here.

What was measured:
formalin response [1] = assay: Formalin assay in rats after i.v. (tail vein) injection of peptide; format: in vivo; conditions: rat, tail vein injection 1 mM
Experimental: FIG. 2—Supression of phase II, but not phase I formalin response in rats injected with R9-QDHWC peptide. The effect of i.v. administration of PBS, R9 (1 mM) or R9-QDHWC (1 mM) on phase I and phase II of the formalin assay. Phase I represents the period from 0-10 min following formalin injection and phase II represents the period from 11-60 min following formalin injection. N=4-7 rats per group. *** indicates a significant difference when compared to PBS injection (p<0.01).
As is shown in FIG. 2, the peptide R9-QDHWC (full sequence RRRRRRRRRQDHWC; SEQ ID NO_also inhibits phage II but not phase I responses in the rat formalin model. Male Sprague Dawley rats (175-225 gm) received a tail vein injection of either PBS, R9 (1 mM), or R9-QDHWC (1 mM) following which they were placed in a plexiglass observation chamber to allow for acclimation. Thirty minutes following the tail vein injection, the dorsal surface of one hind paw was injected with 50 ul of a 5% formalin solution. Observers, blind to drug treatment, scored the number of biting, licking, and scratching behaviors of the injected hindlimb and paw. Data were analyzed with SigmaStat Software (SPSS, Inc. v. 2.03) using ANOVA followed by a Tukey post hoc analysis.

[2] = system: mature hippocampal neuronal cultures; assay: FM1-43 imaging, double-staining protocol (synaptic function); format: cell-based; conditions: neurons incubated with 50 μM peptide for 15 min; 90 mM KCl stimulation
Source text: FIGS. 3A-D—Effects of R9-QDHWC peptides on synaptic function. Double-staining protocol is shown on the top. Results of first and second destaining are shown for representative puncta for control neurons (FIG. 3A), for neurons loaded with R9 peptide (FIG. 3B) and for neurons loaded with R9-QDHWC peptide (FIG. 3C). An average d2/d1 ratios are compared for all 3 groups of neurons (FIG. 3D).
An FM1-43 imaging was used to study synaptic effects of R9-QDHWC competitive peptide that corresponds to Mint-PDZ binding site on Cav2.2 subunit. In these experiments we adapted double-staining protocol from (Reuter, 1995). First the mature hippocampal neuronal cultures were stained with FM1-43 dye for 90 sec in the presence of 47 mM KCl (FIG. 3, top). Following staining and washout of the dye (10 min) the neurons were stimulated by 90 mM KCl and the initial rate of destaining (d1) was measured at each puncta (FIG. 3, top). After completion of the first destaining protocol, the same neuronal culture was re-stained with FM1-43 for 90 sec in the presence of 47 mM KCl. […] The initial rate of destaining (d2) was once again measured at each puncta (FIG. 3, top).
To compare the results obtained during first and second destaining protocols and to minimize puncta-to-puncta variability, the inventors calculated the d2/d1 ratios for each puncta.

GST-Mint1-PDZ1/2 protein [3] = assay: HTRF assay of bio-NC peptide association with GST-Mint1-PDZ1/2; format: binding; conditions: 1000 nM with 1000 nM GST-Mint1-PDZ1/2
GST-Mint1-PDZ1/2 protein [4] = assay: ALPHA (AlphaScreen) assay of bio-NC peptide association with GST-Mint1-PDZ1/2; format: binding; conditions: with GST-Mint1-PDZ-1/2, 189 nM concentration
formalin response [5] = assay: Formalin assay in mouse, test compound injected into the hindpaw; format: in vivo; conditions: hindpaw injection
Experimental: FIGS. 1A & 1B—Supression of phase II, but not phase I formalin response in mouse injected with R9-NC peptide. FIG. 1A. Sequence of R9-NC peptide. FIG. 1B. Results of formalin assay in control mouse (n=8) and mouse injected with R9-NC 60 min prior to formalin injection (n=8). Phase I response (1-10 min from formalin injection) and phase II response (11-60 min from formalin injection) are shown.
First, animals are injected with a 10 μM (20 μl) solution of the test compound (dissolved in PBS) in the dorsal surface of the hindpaw. One hour following the injection of the test compound, animals receive a formalin injection (20 μl of a 5% solution) into the dorsal surface of the hindpaw. The contralateral paw is not injected. Following injection, animals are immediately transferred to a plexiglass observation cage. Each animal is observed for a total of 60 minutes following formalin injection. The period spent biting, scratching, or licking the injected hindpaw is recorded (pain score). Data is presented as cumulative time spent biting, scratching, and licking in phase I (0-10 min) and phase II (11-60 min).
One hour following delivery of either saline (control) or R9-NC into the dorsum of the hindpaw, formalin (20 μl of a 5% solution) was injected into the same hindpaw. No effect of R9-NC on phase I of the formalin assay was observed.

Molecule: RRRRRRRRRQDHWC [R9-QDHWC, RRRRRRRRRQDHWC]
- adverse effects of delivery of the peptide to rats (formalin response [1]): no apparent adverse effects

Molecule: RRRRRRRRR [R9, peptide permeant motif, used as control peptide]
- average d2/d1 ratio (initial rates of FM1-43 destaining) [2]: 0.55±0.15
- formalin induced phase II behaviors vs PBS (formalin response [1]; 30 min before formalin, phase II 11-60 min): not significantly different

Molecule: O=C(O)CCCC[C@@H]1SC[C@@H]2NC(=O)N[C@@H]21 [Biotin]
- HTRF ratio (GST-Mint1-PDZ1/2 protein [3]): less than 0.04
- ALPHA signal (GST-Mint1-PDZ1/2 protein [4]): less than 1,500

Molecule: RRRRRRRRRHSYHHPDQDHWC [R9-NC]
- side effect when injected in the hindpaw (formalin response [5]): no untoward side effect
